Reference: PubChem BioAssay (NCI)
Several values for one entry are separate records, joined by “and”; a condition that tells them apart may be missing. Equal entries are not always repeated.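 Five concentrations, 48 hours, 96-well plates. GI50: concentration for 50% inhibition of growth. The concentration for full growth arrest is given as TGI.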

Key:
Assay in all cases: DTP human tumour cell line panel, 48 h
NCI/ADR-RES ovarian = test system: NCI/ADR-RES ovarian
T-47D breast = test system: T-47D breast
HS 578T breast = test system: HS 578T breast
MDA-MB-435 = test system: MDA-MB-435
BT-549 breast = test system: BT-549 breast
PC-3 prostate = test system: PC-3 prostate

Row | Compound | GI50 (NCI/ADR-RES ovarian) | TGI (NCI/ADR-RES ovarian) | GI50 (T-47D breast) | TGI (T-47D breast) | GI50 (HS 578T breast) | TGI (HS 578T breast) | GI50 (MDA-MB-435) | TGI (MDA-MB-435) | GI50 (BT-549 breast) | TGI (BT-549 breast) | GI50 (PC-3 prostate) | TGI (PC-3 prostate)
1 | CC(C)C[C@H](NC(=O)[C@H](Cc1ccccc1)n1ccc(N2CCCCC2)cc1=O)B(O)O | 17.4 µM | > 100 µM | 0.781 µM | 6.09 µM | 0.427 µM | 6.2 µM | 0.177 µM | 0.371 µM | 0.364 µM | 4.32 µM | 4.19 µM | > 100 µM
2 | O=C1/C(=C/c2cccc([N+](=O)[O-])c2)COc2ccc(O)c(O)c21 | 2.43 µM | 18 µM | 1.17 µM | 3.92 µM | 2.04 µM | 7.47 µM | 1.69 µM | 3.77 µM | 2.42 µM | 4.84 µM | 1.16 µM | 4.14 µM
3 | O=C(Nc1ccc(Cl)c([N+](=O)[O-])c1)Nc1nc2ccccc2s1 | 2.86 µM | 11.9 µM | 2.48 µM | 10.6 µM | 2.85 µM | 12.3 µM | 2.73 µM | 8.15 µM | 16.4 µM | 44.7 µM | 3.43 µM | 13 µM
4 | CN1CCN(Cc2ccc(-c3cc4ncnc(Nc5ccc(OCc6cccc(F)c6)c(Cl)c5)c4s3)o2)CC1 | 4.32 µM | 9.32 µM | 4.12 µM | 9.06 µM | 5.57 µM | 12.7 µM | 4.68 µM | 10.4 µM | 4.41 µM | 8.91 µM | 4.13 µM | 8.17 µM
5 | Cn1ccnc1C(=O)/C=C/c1ccc(CC(=O)Nc2ccc(Cl)cc2)cc1 | 2.22 µM | > 25 µM | 4.3 µM | > 25 µM | 15.7 µM | > 25 µM | 9.16 µM | > 25 µM | 3.53 µM | > 25 µM | 1.37 µM | > 25 µM
6 | O=C(Nc1ccc(-c2nc3cc4ccccc4cc3[nH]2)cc1)c1cccc(Br)c1 | 15.3 µM | 58.6 µM | 4.09 µM | 18.1 µM | 14.3 µM | 46.2 µM | 4.72 µM | 20.4 µM | 12.6 µM | 28.5 µM | 3.02 µM | 13.4 µM
7 | COc1cc2oc(=O)cc(C)c2cc1[N+](=O)[O-] | – | > 79.3 µM | – | 77.2 µM | – | > 90.3 µM | – | 46.8 µM | – | 35.9 µM | – | > 67.6 µM
8 | O=C(/C=C/c1ccco1)c1ccc(Nc2nc(Nc3ccc(F)cc3)nc(Nc3ccc(Cl)cc3)n2)cc1 | 26.1 µM | > 100 µM | 20.3 µM | > 100 µM | 26 µM | > 91.4 µM | 30.5 µM | > 59.6 µM | 2.23 µM | > 29.6 µM | 1.54 µM | > 37.9 µM
9 | c1ccc(N=C2c3ccccc3CN2c2ccccc2)cc1 | – | > 100 µM | – | > 100 µM | – | > 100 µM | – | > 100 µM | – | > 100 µM | – | > 100 µM
10 | O=[N+]([O-])c1ccc(N2CCN(Cc3ccccc3)CC2)c2c1no[n+]2[O-] | 2.27 µM | 12.3 µM | 1.41 µM | 3.89 µM | 2.32 µM | 7.99 µM | 1.72 µM | 3.38 µM | 1.93 µM | 3.78 µM | 1.25 µM | 2.7 µM
11 | CCn1c(=O)c(-c2ccn[nH]2)cc2c(C)nc(N)nc21 | 1.4 µM | > 100 µM | 0.173 µM | 0.748 µM | 0.35 µM | 2.38 µM | 1.69 µM | > 100 µM | 0.225 µM | 4.29 µM | 0.397 µM | > 100 µM
12 | O=C(Nc1ccc(S(=O)(=O)Nc2nccs2)cc1)c1cccnc1Nc1cccc(Cl)c1 | 15.6 µM | 45.7 µM | 8.42 µM | > 100 µM | 19.5 µM | 67.5 µM | 14.3 µM | 33.4 µM | 16 µM | 39.3 µM | 14.3 µM | 43 µM
13 | CS(=O)(=O)c1ccc(Oc2cc(F)cc(C#N)c2)c2c1[C@H](O)[C@H](F)[C@@H]2F | > 100 µM | > 100 µM | > 100 µM | > 100 µM | > 100 µM | > 100 µM | > 100 µM | > 100 µM | > 100 µM | > 100 µM | > 100 µM | > 100 µM
14 | Cc1ccc(Nc2nc(NCCO)c3ccccc3n2)cc1C | 7.18 µM | 20.6 µM | 2.29 µM | 10.4 µM | 12.4 µM | 33.8 µM | 4 µM | 15.9 µM | 11.5 µM | 23.6 µM | 4.24 µM | 16.7 µM
15 | CC(C(=O)N1C(=O)N(C(=O)C(C)C(O)c2ccccc2)C(c2ccccc2)C1c1ccccc1)C(O)c1ccccc1 (stereo not drawn) | – | – | – | > 100 µM | – | 95.1 µM | – | 61.2 µM | – | 38.8 µM | – | –
16 | COc1cccc(-c2nn(-c3ccccc3)cc2-c2ccnc(NCCNS(=O)(=O)c3ccc(Cl)cc3)c2)c1 | 4.29 µM | > 100 µM | 2.52 µM | 8.66 µM | 5.73 µM | > 100 µM | 3.81 µM | > 100 µM | 4.07 µM | > 100 µM | 2.44 µM | > 100 µM

Row | Compound | GI50 (NCI/ADR-RES ovarian) | TGI (NCI/ADR-RES ovarian) | GI50 (T-47D breast) | TGI (T-47D breast) | GI50 (HS 578T breast) | TGI (HS 578T breast) | GI50 (MDA-MB-435) | TGI (MDA-MB-435) | GI50 (BT-549 breast) | TGI (BT-549 breast) | GI50 (PC-3 prostate) | TGI (PC-3 prostate)
17 | CN(N=O)C(=O)Nc1c[nH]c(=O)[nH]c1=O | – | > 100 µM | – | > 100 µM | – | – | – | > 100 µM | – | – | – | > 100 µM
18 | Oc1ccc(C(c2ccccc2)(c2ccccc2)c2ccccc2)cc1 | 15 µM | 28.6 µM | – | – | 17.6 µM | 65.1 µM | 19.9 µM | 38.3 µM | 17.1 µM | 31.3 µM | 20.6 µM | 36.1 µM
19 | O=C1OC(c2ccco2)=N/C1=C\c1ccc(Cl)c(Cl)c1 | – | – | – | > 100 µM | – | > 100 µM | – | > 100 µM | – | > 100 µM | – | > 100 µM
20 | Nc1c(C(=O)Nc2ccccc2)sc2nc3c(cc12)CCCCCC3 | 0.332 µM | 3.32 µM | 0.892 µM | 20.5 µM | 0.529 µM | 9.64 µM | 0.068 µM | 0.266 µM | 0.286 µM | 4.05 µM | 0.44 µM | > 100 µM
21 | C=C1C(=O)O[C@@H]2C[C@@H]1CC[C@]1(C)O[C@H]1CC[C@@]1(C)O[C@@H]1CC[C@@]2(C)O | 20.1 µM | 46.9 µM | 12.2 µM | 33.3 µM | 22.7 µM | 67.3 µM | 33 µM | > 100 µM | 31.9 µM | 89.5 µM | 21.2 µM | 94.9 µM
22 | CCC1=C(C)/C(=C/c2[nH]c(C)c(C(=O)CCCCC(=O)OC)c2C)N=C1c1ccc[nH]1 | 33.2 µM | > 96.4 µM | 3.45 µM | 13.8 µM | 14.7 µM | 50.4 µM | 10.4 µM | 46.1 µM | 3.8 µM | > 41.3 µM | 4.4 µM | 18 µM
23 | CC(C)(C)[OH+][O-].[O-]c1ccc(Cl)cc1C=Nc1ccc(Cl)cc1[O-].[O]=[V] | 29.1 µM | > 100 µM | 11.9 µM | 98.7 µM | 19.4 µM | 52.6 µM | 14.6 µM | > 100 µM | 13.2 µM | 28.6 µM | 26.1 µM | > 100 µM
24 | CC(O)C1OC(O)C2OC(C)(C)OC12 (stereo not drawn) | – | > 100 µM | – | > 100 µM | – | > 100 µM | – | > 100 µM | – | > 100 µM | – | > 100 µM
25 | C=C1C(=O)O[C@H]2[C@H]1CC/C(COC(=O)C(=O)c1c[nH]c3ccccc13)=C\CC[C@@]1(C)O[C@@H]21 | 3.92 µM | 19.4 µM | 1.61 µM | 4.47 µM | 4.89 µM | > 100 µM | 2.63 µM | 9.82 µM | 2.08 µM | 5.22 µM | 2.13 µM | 4.37 µM
26 | CC(C)(C)[Si](C)(C)OCC1CCC(n2cnc3c(NC(=O)c4ccccc4)ncnc32)O1 (stereo not drawn) | – | 33.4 µM | – | 60.6 µM | – | 33 µM | – | 29.2 µM | – | – | – | 52.6 µM
27 | COc1cc(/C=C(/C)[N+](=O)[O-])ccc1O | 3.18 µM and 3.08 µM | 11.8 µM and 10.9 µM | 2.07 µM and 2.25 µM | 5.05 µM and 5.72 µM | 4.67 µM | > 28.4 µM | 2.16 µM and 1.64 µM | 6.33 µM and 4.4 µM | 2.34 µM and 3.08 µM | 4.67 µM and 8.82 µM | 2.68 µM and 2.74 µM | 7.27 µM and 6.86 µM
28 | CN(C)/[N+]([O-])=N/Oc1cc(Nc2cccc(C(=O)O)c2)c([N+](=O)[O-])cc1[N+](=O)[O-] | > 100 µM | > 100 µM | – | – | 34.7 µM | > 100 µM | > 100 µM | > 100 µM | 72.2 µM | > 100 µM | > 100 µM | > 100 µM
29 | CNc1ccccc1C(=O)N/N=C/C=C/c1ccccc1 | 0.568 µM | > 100 µM | 3.48 µM | > 86.9 µM | 1.97 µM | > 100 µM | – | – | 53.2 µM | > 100 µM | 2.56 µM | > 100 µM
30 | Cc1ccc(C)c(NC(=O)C(=O)C2C(=O)C3=C(CC2(C)C)Nc2ccccc2S3)c1 (stereo not drawn) | – | > 100 µM | – | – | – | > 100 µM | – | > 100 µM | – | > 100 µM | – | > 100 µM
31 | N#CC1=C(N)Oc2cc3c(cc2C1c1cccs1)OCO3 (stereo not drawn) | 0.232 µM | 0.707 µM | 0.595 µM | > 70.5 µM | 0.411 µM | – | – | – | 0.882 µM | 37.6 µM | 1.16 µM | > 100 µM
